Here are results for 5 molecules from patent publication US5750724A, “Indolealkyl derivatives of benzodioxanmethylamine” (American Home Products Corporation, priority 1996, dated 1998).

The target in experiment [1] is T1, 5-HT1A serotonin receptor (Rattus norvegicus, UniProt P19327).
T1 construct: following the procedure of Hall et al., J. Neurochem; 44, 1685 (1985); from tissue
T1 sequence (P19327 1-422): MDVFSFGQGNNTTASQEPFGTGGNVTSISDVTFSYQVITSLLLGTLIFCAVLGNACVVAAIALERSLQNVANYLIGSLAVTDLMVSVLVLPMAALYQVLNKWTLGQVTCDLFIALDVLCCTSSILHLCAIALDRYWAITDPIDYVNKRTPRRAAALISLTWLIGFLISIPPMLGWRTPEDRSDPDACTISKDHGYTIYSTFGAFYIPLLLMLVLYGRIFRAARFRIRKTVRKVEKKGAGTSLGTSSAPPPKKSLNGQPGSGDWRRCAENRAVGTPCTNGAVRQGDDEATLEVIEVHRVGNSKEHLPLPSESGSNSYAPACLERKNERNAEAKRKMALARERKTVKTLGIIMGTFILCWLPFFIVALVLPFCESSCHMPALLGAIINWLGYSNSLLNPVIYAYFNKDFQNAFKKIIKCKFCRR
As to conditions: reference agents; cited from earlier work.

For experiment [2] the following is noted: cited from earlier work.
The next experiment has as its system 5-HT1A receptors. As to conditions: European Journal of Pharmacology, 173 (1989), 189; cited from earlier work.
In experiment [3] the target is T1, 5-HT1A serotonin receptor. The experiment in a line: displacement of [3H] 8-OHDPAT (dipropylaminotetralin) from the 5-HT1A serotonin receptor (Hall et al.). As to conditions: read-out: 5-HT1A Receptor Affinity IC50. The format is binding. From the text:
High affinity for the serotonin 5-HT1A receptor was established by testing the claimed compound's ability to displace [^3 H] 8-OHDPAT (dipropylaminotetralin) from the ^5 -HT1A serotonin receptor following the procedure of Hall et al., J. Neurochem. 44, 1685 (1985). […] The anxiolytic and antidepressant activity of these agents are believed to be, at least partially, due to their 5-HT1A receptor affinity (Vander Maclen et al., Eur. J. Pharmacol. 1986, 129 (1-2) […] and Lucki, J. Clin. Psychiat. 1992, 52, 24-31).

The next experiment concerns the target T2, dopamine D2 receptor (Rattus norvegicus, UniProt P61169).
T2 construct: homogenized rat striatal brain tissue; from tissue; host or cells: rat striatum homogenate
Kind of experiment: dopamine D2 receptor affinity, 3H-quinpirole, homogenized rat striatal brain tissue (modified Seemen and Schaus). The format is binding. The protocol:
Affinity for the dopamine D2 receptor was established by a modification of the standard experimental test procedure of Seemen and Schaus, European Journal of Pharmacology 203: 105-109, 1991, wherein homogenized rat striatal brain tissue is incubated with ^3 H-quinpirole and various concentrations of test compound, filtered and washed and counted in a Betaplate scintillation counter.

Experiment [4] concerns 3H 5-hydroxytryptamine uptake. Kind of experiment: inhibition of 3H 5-hydroxytryptamine uptake, crude synaptosomes from rat frontal cortex (modified Wood and Willie). The format is biochemical. As to conditions: nonspecific uptake in presence of 10 μM fluoxetine, read-out: Inhibition 5-HT Uptake IC50. The protocol: Inhibition of ^3 H 5-hydroxytryptamine uptake was established using a modification of the procedure of Wood and Willie, J. Neurochem. 37:795, 1981. Crude synaptosomes prepared from rat frontal cortex were utilized and nonspecific uptake was defined as that occurring in the presence of excess (10 μM) fluoxetine.

T2 sequence (P61169 whole entry): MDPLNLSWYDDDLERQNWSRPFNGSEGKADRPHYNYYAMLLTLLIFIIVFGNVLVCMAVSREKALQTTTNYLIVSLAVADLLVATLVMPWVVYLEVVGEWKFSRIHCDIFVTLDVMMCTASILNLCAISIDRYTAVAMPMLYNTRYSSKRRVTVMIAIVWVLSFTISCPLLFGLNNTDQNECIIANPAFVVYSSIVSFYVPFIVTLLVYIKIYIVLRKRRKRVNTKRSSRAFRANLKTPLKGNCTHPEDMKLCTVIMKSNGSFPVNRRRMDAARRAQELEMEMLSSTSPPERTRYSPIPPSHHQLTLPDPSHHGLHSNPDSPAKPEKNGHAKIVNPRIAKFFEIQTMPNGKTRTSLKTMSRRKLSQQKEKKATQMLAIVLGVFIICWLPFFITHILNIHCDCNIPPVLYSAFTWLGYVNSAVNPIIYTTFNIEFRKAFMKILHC

Take `CC1(C)CC(=O)N(CCCCN2CCN(c3ncccn3)CC2)C(=O)C1` [gepirone]: the “affinity for the 5-HT1A serotonin receptor subtype (in words)” value (“affinity” below) in experiment [1] is “potent affinity”. Also, in experiment [2], the “anxiolytic and antidepressant activity in clinical trials (in words)” value is “demonstrated both anxiolytic and antidepressant activity in clinical trials”.

Turning to `O=C1CC2(CCCC2)CC(=O)N1CCCCN1CCN(c2ncccn2)CC1` [buspirone], the “affinity” value in experiment [1] is reported as “potent affinity”.

For the molecule `O=C1c2ccccc2S(=O)(=O)N1CCCCN1CCN(c2ncccn2)CC1` [ipsapirone], the “affinity” value in experiment [1] was “potent affinity”. Also, the “anxiolytic and antidepressant activity in clinical trials (in words)” value in experiment [2] is “demonstrated both anxiolytic and antidepressant activity in clinical trials”.

Take `COc1ccc2[nH]cc(CCNCC3COc4ccccc4O3)c2c1` (stereo not drawn): in the experiment with 5-HT1A receptors, the “partial agonist activity at 5-HT1A receptors (in words)” value is given as “partial agonist activity at 5-HT1A receptors”.

For `CS(=O)(=O)Nc1ccc2c(c1)OC(CNCCCCc1c[nH]c3ccccc13)CO2` (stereo not drawn) [Example 11, N-(3-{[4-(1 H-Indol-3-yl)-butylamino]-methyl}-2,3-dihydro-benzo[1,4]dioxin-6-yl)-methanesulfonamide], the values for the IC50 (in experiment [3]; against dopamine D2 receptor; in experiment [4]) were 3.89 nM, 2.37 nM and 13.5 nM, respectively.
